Reference: ChEMBL document CHEMBL1201862, “PubChem BioAssay data set” (2004)
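96-well plates; 48 h exposure; 5 concentrations. Endpoints by linear interpolation between flanking doses. Not reached: highest tested concentration assigned. GI50 = concentration required for 50% inhibition of growth.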 Calls of active or inactive are those of the source. Cut-off read from the data, not from the text of the source: active = GI50 up to about 1.1 µM and inactive = higher.

Legend:
Assay in all cases: NCI-60 cell line screen, 48 h
SW-620 = tested on: SW-620
SNB-19 = tested on: SNB-19
OVCAR-4 = tested on: OVCAR-4
MOLT-4 = tested on: MOLT-4
PC-3 = tested on: PC-3
LOX IMVI = tested on: LOX IMVI
A549 = tested on: A549
SK-OV-3 = tested on: SK-OV-3
COLO 205 = tested on: COLO 205
U-251 = tested on: U-251
EKVX = tested on: EKVX
SK-MEL-28 = tested on: SK-MEL-28
HOP-62 = tested on: HOP-62
SN12C = tested on: SN12C
IGROV-1 = tested on: IGROV-1
NCI-H522 = tested on: NCI-H522
MDA-MB-435 = tested on: MDA-MB-435
TK-10 = tested on: TK-10
CCRF-CEM = tested on: CCRF-CEM

Measured: GI50

Clc1ccccc1NN(Cc1ccncc1)c1ccccc1Cl
inactive: SW-620 16.9 µM | SNB-19 17.3 µM | OVCAR-4 11.1 µM | MOLT-4 15.5 µM | PC-3 15 µM | LOX IMVI 16.7 µM | A549 12.5 µM | SK-OV-3 28.1 µM | COLO 205 14.4 µM | U-251 13.5 µM | EKVX 14 µM | SK-MEL-28 20.3 µM | HOP-62 15.8 µM | SN12C 13.6 µM | IGROV-1 14.6 µM | NCI-H522 12.1 µM | MDA-MB-435 15.2 µM

COC1(CC[C@@H](C)COC2OC(CO)C(O)C(O)C2O)OC2C[C@H]3[C@@H]4CC[C@H]5C[C@@H](OC6OC(CO)C(OC7OC(CO)C(O)C(O)C7O)C(O)C6OC6OC(C)C(O)C(O)C6O)[C@H](O)C[C@]5(C)[C@H]4CC[C@]3(C)C2[C@@H]1C (stereo not given in full)
inactive: SW-620 2.06 µM | SNB-19 1.87 µM | OVCAR-4 1.97 µM | MOLT-4 2.58 µM | PC-3 1.87 µM | LOX IMVI 1.79 µM | A549 1.92 µM | SK-OV-3 1.87 µM | COLO 205 2.57 µM | U-251 1.87 µM | TK-10 2.12 µM | EKVX 2.14 µM | CCRF-CEM 1.88 µM | SK-MEL-28 1.88 µM | HOP-62 1.89 µM | SN12C 1.86 µM | IGROV-1 1.74 µM | NCI-H522 2.2 µM | MDA-MB-435 1.84 µM

N=C(N)SC1c2ccccc2-c2cc([N+](=O)[O-])ccc21 (stereo not given)
inactive: SW-620 3.15 µM | SNB-19 3.66 µM | OVCAR-4 5 µM | MOLT-4 3.52 µM | PC-3 3.78 µM | LOX IMVI 5.57 µM | A549 4.33 µM | SK-OV-3 4.44 µM | COLO 205 2.94 µM | U-251 2.75 µM | TK-10 8.24 µM | EKVX 10.4 µM | CCRF-CEM 3.3 µM | SK-MEL-28 2.41 µM | HOP-62 6.56 µM | SN12C 8.51 µM | IGROV-1 5.62 µM | NCI-H522 2.51 µM | MDA-MB-435 1.92 µM

O=C(Cc1ccc(Cl)cc1)Nc1ccc2oc(-c3ccccc3)nc2c1
inactive: SW-620 > 100 µM | SNB-19 38.9 µM | OVCAR-4 29.5 µM | MOLT-4 > 100 µM | PC-3 > 100 µM | LOX IMVI > 100 µM | A549 > 100 µM | SK-OV-3 77.8 µM | COLO 205 > 100 µM | U-251 56.1 µM | TK-10 > 100 µM | EKVX 30.8 µM | CCRF-CEM > 100 µM | SK-MEL-28 > 100 µM | HOP-62 35.6 µM | SN12C 84.9 µM | IGROV-1 > 100 µM | NCI-H522 > 100 µM | MDA-MB-435 > 100 µM

C#CC(O)/C=C/C(O)CCCC(O)CC#CC(O)C#CCCCCC(O)/C=C/CCCC(=O)CCCCCCCCCCCCCCCC(O)C(O)C#CC(=O)O (stereo not given)
inactive: SNB-19 > 25 µM | OVCAR-4 > 25 µM | MOLT-4 > 25 µM | PC-3 > 25 µM | LOX IMVI 5.37 µM | A549 > 25 µM | SK-OV-3 > 25 µM | COLO 205 > 25 µM | U-251 > 25 µM | TK-10 > 25 µM | EKVX > 25 µM | CCRF-CEM > 25 µM | SK-MEL-28 > 25 µM | HOP-62 > 25 µM | SN12C > 25 µM | IGROV-1 8.55 µM | NCI-H522 6.28 µM | MDA-MB-435 > 25 µM

CCOC(=O)NC(=S)c1ccc(O)c2ccccc12
inactive: SW-620 51.6 µM | SNB-19 95.5 µM | OVCAR-4 > 100 µM | MOLT-4 36.1 µM | PC-3 > 100 µM | LOX IMVI 28.6 µM | A549 44.9 µM | SK-OV-3 45.1 µM | COLO 205 > 100 µM | U-251 > 100 µM | EKVX 27.9 µM | CCRF-CEM 8.63 µM | SK-MEL-28 32.4 µM | HOP-62 77.1 µM | IGROV-1 13.9 µM | NCI-H522 16.9 µM | MDA-MB-435 40.7 µM

CSc1ccc(C2C(Cl)C(=O)N2NC(=O)c2c(Cl)c(Cl)c(Cl)c(Cl)c2-c2nc3ccccc3[nH]2)cc1 (stereo not given)
inactive: SW-620 25.8 µM | SNB-19 29.7 µM | MOLT-4 4.7 µM | PC-3 17.5 µM | LOX IMVI 4.18 µM | A549 31.4 µM | SK-OV-3 26.6 µM | COLO 205 20.3 µM | EKVX 16.5 µM | CCRF-CEM 2.48 µM | SK-MEL-28 17.2 µM | HOP-62 79.3 µM | SN12C 15.8 µM | NCI-H522 1.83 µM | MDA-MB-435 13.3 µM
active: IGROV-1 0.402 µM
